# Measured values published in ChEMBL document CHEMBL4819064, “Discovery of new pyrimidopyrrolizine/indolizine-based derivatives as P-glycoprotein inhibitors: Design, synthesis, cytotoxicity, and MDR reversal activities” (Eur J Med Chem, 2021).
# Tests used:
# [1] = system: A2780; assay: Cytotoxicity against human A2780 cells assessed as reduction in cell viability incubated for 72 hrs by MTT assay; conditions: A2780, 72 h
# [2] = system: HT-29; assay: Cytotoxicity against human HT29 cells assessed as reduction in cell viability incubated for 72 hrs by MTT assay; conditions: HT-29, 72 h
# [3] = system: MRC5; assay: Cytotoxicity against human MRC5 cells assessed as reduction in cell viability incubated for 72 hrs by MTT assay; conditions: MRC5, 72 h
# [4] = Selectivity index, ratio of IC50 for human MRC5 cells to IC50 for human MCF7 cells; assay type: toxicity; conditions: MRC5 cells versus MCF7 cells, read-out: Ratio IC50
# [5] = Selectivity index, ratio of IC50 for human MRC5 cells to IC50 for human A2780 cells; assay type: toxicity; conditions: MRC5 cells versus A2780 cells, read-out: Ratio IC50
# [6] = Selectivity index, ratio of IC50 for human MRC5 cells to IC50 for human HT29 cells; assay type: toxicity; conditions: MRC5 cells versus HT29 cells, read-out: Ratio IC50
# [7] = system: NCI/ADR-RES; assay: Cytotoxicity against human MCF7/ADR cells assessed as reduction in cell viability incubated for 72 hrs by MTT assay
# [8] = Reversal of multidrug resistant activity in human MCF7/ADR cells assessed as reversal fold after 72 hrs by MTT assay; assay type: functional, NCI/ADR-RES
# [9] = system: NCI/ADR-RES; assay: Synergistic cytotoxicity against human MCF7/ADR cells assessed as combination index at 0.25 uM after 72 hrs in presence of 0.25 uM doxorubicin by MTT assay; assay type: functional
# [10] = system: NCI/ADR-RES; assay: Synergistic cytotoxicity against human MCF7/ADR cells assessed as combination index at 0.25 uM after 72 hrs in presence of 1 uM doxorubicin by MTT assay; assay type: functional
# [11] = system: NCI/ADR-RES; assay: Synergistic cytotoxicity against human MCF7/ADR cells assessed as combination index at 0.5 uM after 72 hrs in presence of 0.25 uM doxorubicin by MTT assay; assay type: functional
# [12] = system: NCI/ADR-RES; assay: Synergistic cytotoxicity against human MCF7/ADR cells assessed as combination index at 0.5 uM after 72 hrs in presence of 0.5 uM doxorubicin by MTT assay; assay type: functional
# [13] = system: NCI/ADR-RES; assay: Synergistic cytotoxicity against human MCF7/ADR cells assessed as combination index at 0.5 uM after 72 hrs in presence of 1 uM doxorubicin by MTT assay; assay type: functional
# [14] = system: NCI/ADR-RES; assay: Synergistic cytotoxicity against human MCF7/ADR cells assessed as combination index at 1 uM after 72 hrs in presence of 0.25 uM doxorubicin by MTT assay; assay type: functional
# [15] = system: NCI/ADR-RES; assay: Synergistic cytotoxicity against human MCF7/ADR cells assessed as combination index at 1 uM after 72 hrs in presence of 1 uM doxorubicin by MTT assay; assay type: functional
# [16] = target: T1, ATP-dependent translocase ABCB1 (Homo sapiens, UniProt P08183); assay: Inhibition of P-gp activity in human MCF7/ADR cells at 250 nM after 72 hrs by RT-PCR analysis relative to control; assay type: cell-based, NCI/ADR-RES; conditions: nci/adr-res, 72 h, 0.25 µM
# T1 sequence (P08183 whole entry): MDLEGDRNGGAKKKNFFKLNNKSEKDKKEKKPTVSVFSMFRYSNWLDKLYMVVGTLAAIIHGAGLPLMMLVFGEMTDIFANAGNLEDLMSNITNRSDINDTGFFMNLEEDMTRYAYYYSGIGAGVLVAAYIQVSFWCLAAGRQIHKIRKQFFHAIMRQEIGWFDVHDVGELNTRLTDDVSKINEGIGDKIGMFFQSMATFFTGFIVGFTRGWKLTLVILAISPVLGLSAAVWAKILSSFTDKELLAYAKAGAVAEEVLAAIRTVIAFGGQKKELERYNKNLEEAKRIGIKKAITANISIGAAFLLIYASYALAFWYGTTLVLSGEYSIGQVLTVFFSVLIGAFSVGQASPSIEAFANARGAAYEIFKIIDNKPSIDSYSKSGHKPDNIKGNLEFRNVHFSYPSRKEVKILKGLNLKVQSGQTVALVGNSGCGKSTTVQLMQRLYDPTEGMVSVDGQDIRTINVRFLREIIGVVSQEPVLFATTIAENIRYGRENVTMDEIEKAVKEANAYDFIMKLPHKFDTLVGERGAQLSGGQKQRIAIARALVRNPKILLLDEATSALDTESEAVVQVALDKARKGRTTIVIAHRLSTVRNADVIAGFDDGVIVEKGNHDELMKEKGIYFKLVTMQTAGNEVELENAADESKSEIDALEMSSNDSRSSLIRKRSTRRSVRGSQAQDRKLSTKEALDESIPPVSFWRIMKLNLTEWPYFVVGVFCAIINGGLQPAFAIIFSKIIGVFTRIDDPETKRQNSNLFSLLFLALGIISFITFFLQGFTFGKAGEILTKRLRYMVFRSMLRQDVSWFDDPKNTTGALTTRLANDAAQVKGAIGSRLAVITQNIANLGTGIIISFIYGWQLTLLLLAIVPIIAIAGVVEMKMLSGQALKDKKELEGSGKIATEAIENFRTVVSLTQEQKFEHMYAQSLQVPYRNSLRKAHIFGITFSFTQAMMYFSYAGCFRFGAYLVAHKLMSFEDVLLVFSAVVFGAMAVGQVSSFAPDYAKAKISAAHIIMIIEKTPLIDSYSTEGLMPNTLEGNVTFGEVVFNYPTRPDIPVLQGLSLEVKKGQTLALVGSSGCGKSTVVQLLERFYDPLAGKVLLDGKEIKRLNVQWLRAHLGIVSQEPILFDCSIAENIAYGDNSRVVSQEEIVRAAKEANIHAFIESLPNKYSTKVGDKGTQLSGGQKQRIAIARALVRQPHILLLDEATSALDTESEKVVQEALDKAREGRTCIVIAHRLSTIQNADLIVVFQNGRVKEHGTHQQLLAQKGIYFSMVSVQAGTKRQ
# [17] = target: T1, ATP-dependent translocase ABCB1; assay: Inhibition of P-gp activity in human MCF7/ADR cells at 500 nM after 72 hrs by RT-PCR analysis relative to control; assay type: cell-based, NCI/ADR-RES; conditions: nci/adr-res, 72 h, 0.5 µM
# [18] = target: T1, ATP-dependent translocase ABCB1; assay: Inhibition of P-gp activity in human MCF7/ADR cells at 1000 nM after 72 hrs by RT-PCR analysis relative to control; assay type: cell-based, NCI/ADR-RES; conditions: nci/adr-res, 72 h, 1 µM
# [19] = target: T1, ATP-dependent translocase ABCB1; assay: Inhibition of P-gp in human MCF7/ADR cells assessed as increase in Rho123 accumulation measured after 2 hrs by flow cytometry; assay type: cell-based; conditions: nci/adr-res
# [20] = system: MCF7; assay: Cell cycle arrest in human MCF7 cells assessed as accumulation at pre-G1 phase at 0.125 uM incubated for 72 hrs by PI staining based flow cytometric analysis (reference value: 1.6 +/- 0.2 %); assay type: functional
# [21] = system: MCF7; assay: Cell cycle arrest in human MCF7 cells assessed as accumulation at pre-G1 phase at 0.250 uM incubated for 72 hrs by PI staining based flow cytometric analysis (reference value: 1.6 +/- 0.2 %); assay type: functional; conditions: dose 0.25 µM
# [22] = system: MCF7; assay: Cell cycle arrest in human MCF7 cells assessed as accumulation at pre-G1 phase at 0.5 uM incubated for 72 hrs by PI staining based flow cytometric analysis (reference value: 1.6 +/- 0.2 %); assay type: functional
# [23] = system: MCF7; assay: Cell cycle arrest in human MCF7 cells assessed as accumulation at G1 phase at 0.125 uM incubated for 72 hrs by PI staining based flow cytometric analysis (reference value: 56.9 +/- 5.6 %); assay type: functional
# [24] = system: MCF7; assay: Cell cycle arrest in human MCF7 cells assessed as accumulation at G1 phase at 0.250 uM incubated for 72 hrs by PI staining based flow cytometric analysis (reference value: 56.9 +/- 5.6 %); assay type: functional; conditions: dose 0.25 µM
# [25] = system: MCF7; assay: Cell cycle arrest in human MCF7 cells assessed as accumulation at G1 phase at 0.5 uM incubated for 72 hrs by PI staining based flow cytometric analysis (reference value: 56.9 +/- 5.6 %); assay type: functional
# [26] = system: MCF7; assay: Cell cycle arrest in human MCF7 cells assessed as accumulation at S phase at 0.250 uM incubated for 72 hrs by PI staining based flow cytometric analysis (reference value: […] +/- 2.6 %); assay type: functional; conditions: dose 0.25 µM
# [27] = system: MCF7; assay: Cell cycle arrest in human MCF7 cells assessed as accumulation at G2/M phase at 0.250 uM incubated for 72 hrs by PI staining based flow cytometric analysis (reference value: 15 +/- 1.5 %); assay type: functional; conditions: dose 0.25 µM
# [28] = system: MCF7; assay: Cell cycle arrest in human MCF7 cells assessed as accumulation at G2/M phase at 0.5 uM incubated for 72 hrs by PI staining based flow cytometric analysis (reference value: 15 +/- 1.5 %); assay type: functional
# [29] = system: MCF7; assay: Induction of apoptosis in human MCF7 cells assessed as early apoptotic cells at 0.125 uM after 72 hrs by Annexin V-FITC/propidium iodide staining-based flow cytometric analysis (reference value: 4.6 %); assay type: functional
# [30] = system: MCF7; assay: Induction of apoptosis in human MCF7 cells assessed as necrotic cells at 0.125 uM after 72 hrs by Annexin V-FITC/propidium iodide staining-based flow cytometric analysis (reference value: 6.2 %); assay type: functional
# [31] = system: MCF7; assay: Induction of apoptosis in human MCF7 cells assessed as viable cells at 0.250 uM after 72 hrs by Annexin V-FITC/propidium iodide staining-based flow cytometric analysis (reference value: 86.4 %); assay type: functional; conditions: read-out: Activity
# [32] = system: MCF7; assay: Induction of apoptosis in human MCF7 cells assessed as early apoptotic cells at 0.250 uM after 72 hrs by Annexin V-FITC/propidium iodide staining-based flow cytometric analysis (reference value: 4.6 %); assay type: functional; conditions: dose 0.25 µM
# [33] = system: MCF7; assay: Induction of apoptosis in human MCF7 cells assessed as late apoptotic cells at 0.250 uM after 72 hrs by Annexin V-FITC/propidium iodide staining-based flow cytometric analysis (reference value: 2.8 %); assay type: functional; conditions: dose 0.25 µM
# [34] = system: MCF7; assay: Induction of apoptosis in human MCF7 cells assessed as late apoptotic cells at 0.5 uM after 72 hrs by Annexin V-FITC/propidium iodide staining-based flow cytometric analysis (reference value: 2.8 %); assay type: functional
# [35] = system: MCF7; assay: Induction of apoptosis in human MCF7 cells assessed as necrotic cells at 0.5 uM after 72 hrs by Annexin V-FITC/propidium iodide staining-based flow cytometric analysis (reference value: 6.2 %); assay type: functional
compound,measurement,setting,value
N#Cc1c2n(c3c(=O)n(-c4ccccc4)cnc13)CCCC2,IC50,[1],60 nM
same,IC50,[2],1070 nM
same,IC50,[3],1450 nM
same,selectivity ratio,[4],4.83
same,selectivity ratio,[5],24.2
same,selectivity ratio,[6],1.36
same,IC50,[7],6010 nM
same,fold change (FC),[8],15.57
same,CI,[9],0.927
same,CI,[10],0.433
same,CI,[11],1.9
same,CI,[12],1.7
same,CI,[13],1.552
same,CI,[14],0.211
same,CI,[15],0.025
same,inhibition (INH),[16],176%
same,inhibition (INH),[17],190%
same,inhibition (INH),[18],220%
same,inhibition (INH),[19],Dose-Dependent Effect
same,Activity,[20],1.6%
same,Activity,[21],1.2%
same,Activity,[22],1.6%
same,Activity,[23],61%
same,Activity,[24],75.2%
same,Activity,[25],77.8%
same,Activity,[26],5.5%
same,Activity,[27],18%
same,Activity,[28],18.9%
same,Activity,[29],6.6%
same,Activity,[30],5.4%
same,viability at 0.25 µM,[31],68.2%
same,Activity,[32],7.5%
same,Activity,[33],13.6%
same,Activity,[34],2.1%
same,Activity,[35],4.8%
